Nine molecules from BindingDB's records for doi:10.1016/j.bmc.2008.11.020 (Astellas Pharma, 2008) can be followed below.

Structures are written as SMILES.

By IC50 is commonly meant the concentration needed to halve the response being measured.

The nature of assay [1]: Antagonist activity at mouse CCR4 receptor expressed in mouse B300-19 cells assessed as CCL22-induced chemotaxis.
The nature of assay [2]: Antagonist activity at human CCR4 receptor expressed in mouse B300-19 cells assessed as CCL22-induced chemotaxis.

Consider `COc1cc2nc(N3CCC(N4CCCC(CO)C4)CC3)nc(NC3CCCCCC3)c2cc1OC` (stereo unspecified) [{1'-[4-(Cycloheptylamino)-6,7-dimethoxyquinazolin-2-yl]-1,4'-bipiperidin-3-yl}methanol], for which the IC50 in assay [1] is 19 nM; in assay [2], 100 nM.
The like results for `COc1cc2nc(N3CCC(N4CCCC(O)C4)CC3)nc(Nc3ccc(Cl)cc3)c2cc1OC` (stereo unspecified) [1'-{4-[(4-Chlorophenyl)amino]-6,7-dimethoxyquinazolin-2-yl}-1,4'-bipiperidin-3-ol] were, in that order, 430 nM and 85 nM.
Consider `COc1cc2nc(N3CCC(N4CCOC(CO)C4)CC3)nc(Nc3ccc(Cl)cc3)c2cc1OC` (stereo unspecified) [[4-(1-{4-[(4-Chlorophenyl)amino]-6,7-dimethoxyquinazolin-2-yl}piperidin-4-yl)morpholin-2-yl]methanol], for which, in assay [2], the half-maximal inhibitory concentration (IC50) amounted to 620 nM.
`COc1cc2nc(N3CCC(N4CCCC(CO)C4)CC3)nc(NCc3ccc(Cl)cc3)c2cc1OC` (stereo unspecified) [(1'-{4-[(4-Chlorobenzyl)amino]-6,7-dimethoxyquinazolin-2-yl}-1,4'-bipiperidin-3-yl)methanol]: the IC50 in assay [1] was found to be 140 nM; in assay [2] it was 450 nM.
The like results for `COCC1CCCN(C2CCN(c3nc(Nc4ccc(Cl)cc4)c4cc(OC)c(OC)cc4n3)CC2)C1` (stereo unspecified) [N-(4-Chlorophenyl)-6,7-dimethoxy-2-[3-(methoxymethyl)-1,4'-bipiperidin-1'-yl]quinazolin-4-amine] were, in that order, 230 nM and 64 nM.
Taken in the same sequence, the figures for `COc1cc2nc(N3CCC(N4CCCCC4)CC3)nc(NC3CCCCCC3)c2cc1OC` [N-cycloheptyl-6,7-dimethoxy-2-(4-(piperidin-1-yl)piperidin-1-yl)quinazolin-4-amine] were 39 nM and 140 nM.
`COc1cc2nc(N3CCC(N4CCCC(CO)C4)CC3)nc(NCCc3ccc(Cl)cc3)c2cc1OC` (stereo unspecified) [1'-(4-{[2-(4-Chlorophenyl)ethyl]amino}-6,7-dimethoxyquinazolin-2-yl)-1,40-bipiperidin-3-yl]methanol]: the half-maximal inhibitory concentration (IC50) in assay [1] stood at 390 nM.
With `COc1cc2nc(N3CCC(N4CCCC(OC)C4)CC3)nc(Nc3ccc(Cl)cc3)c2cc1OC` (stereo unspecified) [N-(4-chlorophenyl)-6,7-dimethoxy-2-(3-methoxy-1,4'-bipiperidin-1'-yl)quinazolin-4-amine], the IC50 stood at 420 nM in assay [1] and 510 nM in assay [2].
Taken in the same sequence, the figures for `COc1cc2nc(N3CCC(N4CCCC(CO)C4)CC3)nc(Nc3ccc(Cl)cc3)c2cc1OC` (stereo unspecified) [(1'-{4-[(4-Chlorophenyl)amino]-6,7-dimethoxyquinazolin-2-yl}-1,4'-bipiperidin-3-yl)methanol] were 58 nM and 23 nM.
